# Source: patent US11970473B2, “Nootkatone derivatives and methods of using the same” (Arkansas State University—Jonesboro, priority 2021, dated 2024)
# Legend:
# [1] = system: B. subtilis ATCC 6623 (Bs); experiment: Minimal inhibitory concentration (MIC) assay; type: cell-based; settings: Bacillus subtilis, ATCC6623; B. subtilis ATCC 6623; read-out: Antimicrobial activity (MIC) Bs
# Method: (§1) Minimal inhibitory concentration (MIC) assay The standard microdilution method recommended by the Clinical and Laboratory Standards Institute (CLSI) was used to determine the MIC of the antibiotics. The starting concentration of compounds was 50 μg/ml and 2-fold dilution was done down the 96 honeycomb well plate column. The MIC assay was conducted in triplicates.
# [2] = system: Enterococcus faecalis ATCC 29212 (Es12); experiment: Minimal inhibitory concentration (MIC) assay; type: cell-based; settings: ATCC29212; Enterococcus faecalis ATCC 29212; read-out: Antimicrobial activity (MIC) Es12
# Method: as §1
# [3] = system: Enterococcus faecium ATCC 700221 (Em21); experiment: Minimal inhibitory concentration (MIC) assay; type: cell-based
# Method: as §1
# [4] = system: S. aureus ATCC 25923 (Sa23); experiment: Minimal inhibitory concentration (MIC) assay; type: cell-based; settings: Staphylococcus aureus, ATCC25923; S. aureus ATCC 25923, antibiotic susceptible strain; read-out: Antimicrobial activity (MIC) Sa23
# Method: as §1
# [5] = system: S. aureus ATCC 33591 (Sa91); experiment: Minimal inhibitory concentration (MIC) assay; type: cell-based; settings: Staphylococcus aureus, ATCC33591; S. aureus ATCC 33591, antibiotic-resistant strain; read-out: Antimicrobial activity (MIC) Sa91
# Method: as §1
# [6] = system: S. aureus ATCC 33592 (Sa92); experiment: Minimal inhibitory concentration (MIC) assay; type: cell-based; settings: Staphylococcus aureus, ATCC33592; S. aureus ATCC 33592, antibiotic-resistant strain; read-out: Antimicrobial activity (MIC) Sa92
# Method: as §1
# [7] = system: S. aureus ATCC 700699 (Sa99); experiment: Minimal inhibitory concentration (MIC) assay; type: cell-based; settings: Staphylococcus aureus, ATCC700699; S. aureus ATCC 700699, antibiotic-resistant strain; read-out: Antimicrobial activity (MIC) Sa99
# Method: as §1
# [8] = system: S. aureus BAA-2312 (Sa12); experiment: Minimal inhibitory concentration (MIC) assay; type: cell-based; settings: Staphylococcus aureus, BAA2312; S. aureus BAA-2312, antibiotic-resistant strain; read-out: Antimicrobial activity (MIC) Sa12
# Method: as §1
# [9] = system: S. epidermidis 700296 (Se); experiment: Minimal inhibitory concentration (MIC) assay; type: cell-based; settings: Staphylococcus epidermidis, S. epidermidis 700296; read-out: Antimicrobial activity (MIC) Se
# Method: as §1
# CCRF-CEM = experiment: NCI-60 cancer screen; type: cell-based, human; settings: Leukemia, 10 μM
# MOLT-4 = experiment: NCI-60 cancer screen; type: cell-based, human; settings: MOLT-4, Leukemia; 10 μM
# EKVX = experiment: NCI-60 cancer screen; type: cell-based, human; settings: Non-Small Cell Lung Cancer, 10 μM
# HOP-62 = experiment: NCI-60 cancer screen; type: cell-based, human; settings: HOP-62, Non-Small Cell Lung Cancer; 10 μM
# NCI-H226 = experiment: NCI-60 cancer screen; type: cell-based, human; settings: NCI-H226, Non-Small Cell Lung Cancer; 10 μM
# NCI-H23 = experiment: NCI-60 cancer screen; type: cell-based, human; settings: NCI-H23, Non-Small Cell Lung Cancer; 10 μM
# NCI-H322M = experiment: NCI-60 cancer screen; type: cell-based, human; settings: Non-Small Cell Lung Cancer, 10 μM
# NCI-H522 = experiment: NCI-60 cancer screen; type: cell-based, human; settings: NCI-H522, Non-Small Cell Lung Cancer; 10 μM
# HCT-116 = experiment: NCI-60 cancer screen; type: cell-based, human; settings: HCT-116, Colon Cancer; 10 μM
# SF-268 = experiment: NCI-60 cancer screen; type: cell-based, human; settings: SF-268, CNS Cancer; 10 μM
# U251 = experiment: NCI-60 cancer screen; type: cell-based, human; settings: U251, CNS Cancer; 10 μM
# LOX IMVI = experiment: NCI-60 cancer screen; type: cell-based, human; settings: Melanoma, 10 μM
# MALME-3M = experiment: NCI-60 cancer screen; type: cell-based, human; settings: Melanoma, 10 μM
# SK-MEL-2 = experiment: NCI-60 cancer screen; type: cell-based, human; settings: SK-MEL-2, Melanoma; 10 μM
# SK-MEL-5 = experiment: NCI-60 cancer screen; type: cell-based, human; settings: SK-MEL-5, Melanoma; 10 μM
# UACC-257 = experiment: NCI-60 cancer screen; type: cell-based, human; settings: UACC-257, Melanoma; 10 μM
# UACC-62 = experiment: NCI-60 cancer screen; type: cell-based, human; settings: UACC-62, Melanoma; 10 μM
# OVCAR-4 = experiment: NCI-60 cancer screen; type: cell-based, human; settings: OVCAR-4, Ovarian Cancer; 10 μM
# NCI/ADR-RES = experiment: NCI-60 cancer screen; type: cell-based, human; settings: Ovarian Cancer, 10 μM
# SN12C = experiment: NCI-60 cancer screen; type: cell-based, human; settings: Renal Cancer, 10 μM
# TK-10 = experiment: NCI-60 cancer screen; type: cell-based, human; settings: TK-10, Renal Cancer; 10 μM
# UO-31 = experiment: NCI-60 cancer screen; type: cell-based, human; settings: UO-31, Renal Cancer; 10 μM
# MCF7 = experiment: NCI-60 cancer screen; type: cell-based, human; settings: MCF7, Breast Cancer; 10 μM
# HS 578T = experiment: NCI-60 cancer screen; type: cell-based, human; settings: Breast Cancer, 10 μM
# T-47D = experiment: NCI-60 cancer screen; type: cell-based, human; settings: Breast Cancer, 10 μM
smiles,measurement,setting,value
"C=C(C)[C@@H]1CC=C2c3sc(-c4ccc(O)cc4)nc3C[C@@H](C)[C@]2(C)C1 [Compound 15, 4-[(5R,5aS,7R)-7-isopropenyl-5,5a-dimethyl-5,6,7,8-tetrahydro-4H-benzo[g][1,3]benzothiazol-2-yl]phenol]",MIC,[1],6.25 µg/mL
same,MIC,[2],12.5 µg/mL
same,Antimicrobial activity (MIC) Em21,[3]; Enterococcus faecium ATCC 700221,3.12 µg/mL
same,MIC,"[3]; Enterococcus faecium, ATCC700221, Enterococcus faecium ATCC 700221, read-out: Antimicrobial activity (MIC) Em21",3.12 µg/mL
same,MIC,[4],> 100 µg/mL
same,MIC,[5],6.2 µg/mL
same,MIC,[6],6.25 µg/mL
same,MIC,[7],12.5 µg/mL
same,MIC,[8],12.5 µg/mL
same,MIC,[9],6.25 µg/mL
same,Growth Percent,CCRF-CEM,99.49%
same,Growth Percent,MOLT-4,105.32%
same,Growth Percent,EKVX,101.37%
same,Growth Percent,HOP-62,95.96%
same,Growth Percent,NCI-H226,94.10%
same,Growth Percent,NCI-H23,94.71%
same,Growth Percent,NCI-H322M,102.27%
same,Growth Percent,NCI-H522,92.28%
same,Growth Percent,HCT-116,114.01%
same,Growth Percent,SF-268,100.98%
same,Growth Percent,U251,102.73%
same,Growth Percent,LOX IMVI,101.88%
same,Growth Percent,MALME-3M,99.38%
same,Growth Percent,SK-MEL-2,104.08%
same,Growth Percent,SK-MEL-5,99.11%
same,Growth Percent,UACC-257,100.07%
same,Growth Percent,UACC-62,93.02%
same,Growth Percent,OVCAR-4,95.29%
same,Growth Percent,NCI/ADR-RES,105.66%
same,Growth Percent,SN12C,94.92%
same,Growth Percent,TK-10,118.28%
same,Growth Percent,UO-31,88.19%
same,Growth Percent,MCF7,89.98%
same,Growth Percent,HS 578T,100.94%
same,Growth Percent,T-47D,84.40%
